Literature values, collected in patent publication US20070197486A1, “Methods and systems for the delivery of corticosteroids” (Verus Pharmaceuticals, Inc., priority 2005, published 2007).
Read-outs that look alike come from different tables or passages of the source.

- solubility (in alcohols): readily soluble
- solubility (in water): virtually insoluble
SMILES: CCCC1O[C@@H]2C[C@H]3[C@@H]4CCC5=CC(=O)C=C[C@]5(C)[C@H]4[C@@H](O)C[C@]3(C)[C@]2(C(=O)CO)O1 (stereo partly drawn) [budesonide, (R,S)-11β,16α,17,21-tetrahydroxypregna-1,4-diene-3,20-dione cyclic 16,17-acetal with butyraldehyde]
